The values that follow come from article PMC2409906, “Establishment and characterisation of a human carcinoma cell line with acquired resistance to Aplidin™” (British Journal of Cancer, 2004).

The test system of one series is human leukaemia samples. The settings on record: ref Bresters et al, 2003; cited from earlier work.
Another series has as its system HeLa-APL cells. The series is described as follows: Sulphorhodamine B (SRB) growth inhibition assay, resistant subline. Format: cell-based, human. The settings on record: HeLa-APL vs HeLa wt; for crossresistance of HeLa-APL cells (IC50 values, SRB cell growth assay): 48 or 72 h exposure; for crossresistance of HeLa-APL cells: data not shown. The procedure: HeLa, HeLa-APL, LoVo and LoVo-dox ([Grandi et al, 1986]) cells were maintained in DMEM supplemented with 10% FCS and 100 U ml^−1 penicillin and streptomycin at 37°C and 5% CO2.
Cells were washed twice with PBS, fixed for 15 min in 1% glutaraldehyde solution, rinsed twice in PBS, and stained in 0.4% SRB solution for 30 min at room temperature. Cells were then rinsed several times with 1% acetic acid solution and air-dried. Sulphorhodamine B was then extracted in 10 mM trizma base solution and the absorbance measured at 490 nm. Cell survival was expressed as percentage of control cell growth.

The test system of series [1] is HeLa wt and HeLa-APL cells. The series is described as follows: Detection of drug in cell extracts by Maldi-TOF mass spectrometry. Format: in vitro ADME, human. The settings on record: 450 nM, 1 h exposure, methanol cell extracts, Maldi-TOF MS, parental and HeLa-APL cells. Here is the method: To detect minute amounts of APL present in the cellular extracts, Matrix-Assisted Laser Desorption/Ionisation-Time Of Flight Mass Spectrometry (Maldi-TOF MS) technique was used. Cell cultures were treated with vehicle or APL at the concentrations and times indicated in the text, washed with PBS and harvested by centrifugation at 6000 r.p.m. for 5 min at 4°C. Cell pellets were washed with PBS and extracted with cold methanol. Equal amounts of extract were applied on a template, air dried, mixed with 0.2–0.5 μl matrix (10 mg ml^−1 dihydroxy benzoic acid in water :acetonitrile mix, 1% trifluoroacetic acid) and air dried. Analyses were performed on a Voyager DE Pro (PerSeptive Biosystems, Framingham, MS, USA). Mass spectra were averaged over 100–200 laser shots from a nitrogen laser (337 nm) operating in a linear mode. Ionised molecules were accelerated with a voltage of 20 kV. The following peptides were used as external markers: intact human insulin, human insulin alpha-chain, human insulin beta-chain and cytochrome c.

The test system of series [2] is HeLa wt and HeLa-APL cells. The series is described as follows: Intracellular accumulation of fluorescent APL-dmac (fluorescence microscopy). It is filed as in vitro ADME, human. The procedure: (§1) Cells were stained with APL-dmac, Calcein-AM or Hoechst-33342 by direct addition of the fluorescent compounds in the cell culture dishes, incubated at 37°C for the times indicated, washed in PBS and examined by fluorescence microscopy.

Details of series [3]: method as in Vervoort and Fenical, 2000; Joullie et al, 2003. The settings on record: ref Vervoort and Fenical, 2000; Joullie et al, 2003; cited from earlier work.
In a further series the target is T1, Pgp170 in LoVo-Dox cells (Homo sapiens, UniProt P08183).
T1 construct: endogenous in cells; host or cells: LoVo-Dox (doxorubicin-selected LoVo colorectal carcinoma cells)
T1 sequence (P08183 whole entry): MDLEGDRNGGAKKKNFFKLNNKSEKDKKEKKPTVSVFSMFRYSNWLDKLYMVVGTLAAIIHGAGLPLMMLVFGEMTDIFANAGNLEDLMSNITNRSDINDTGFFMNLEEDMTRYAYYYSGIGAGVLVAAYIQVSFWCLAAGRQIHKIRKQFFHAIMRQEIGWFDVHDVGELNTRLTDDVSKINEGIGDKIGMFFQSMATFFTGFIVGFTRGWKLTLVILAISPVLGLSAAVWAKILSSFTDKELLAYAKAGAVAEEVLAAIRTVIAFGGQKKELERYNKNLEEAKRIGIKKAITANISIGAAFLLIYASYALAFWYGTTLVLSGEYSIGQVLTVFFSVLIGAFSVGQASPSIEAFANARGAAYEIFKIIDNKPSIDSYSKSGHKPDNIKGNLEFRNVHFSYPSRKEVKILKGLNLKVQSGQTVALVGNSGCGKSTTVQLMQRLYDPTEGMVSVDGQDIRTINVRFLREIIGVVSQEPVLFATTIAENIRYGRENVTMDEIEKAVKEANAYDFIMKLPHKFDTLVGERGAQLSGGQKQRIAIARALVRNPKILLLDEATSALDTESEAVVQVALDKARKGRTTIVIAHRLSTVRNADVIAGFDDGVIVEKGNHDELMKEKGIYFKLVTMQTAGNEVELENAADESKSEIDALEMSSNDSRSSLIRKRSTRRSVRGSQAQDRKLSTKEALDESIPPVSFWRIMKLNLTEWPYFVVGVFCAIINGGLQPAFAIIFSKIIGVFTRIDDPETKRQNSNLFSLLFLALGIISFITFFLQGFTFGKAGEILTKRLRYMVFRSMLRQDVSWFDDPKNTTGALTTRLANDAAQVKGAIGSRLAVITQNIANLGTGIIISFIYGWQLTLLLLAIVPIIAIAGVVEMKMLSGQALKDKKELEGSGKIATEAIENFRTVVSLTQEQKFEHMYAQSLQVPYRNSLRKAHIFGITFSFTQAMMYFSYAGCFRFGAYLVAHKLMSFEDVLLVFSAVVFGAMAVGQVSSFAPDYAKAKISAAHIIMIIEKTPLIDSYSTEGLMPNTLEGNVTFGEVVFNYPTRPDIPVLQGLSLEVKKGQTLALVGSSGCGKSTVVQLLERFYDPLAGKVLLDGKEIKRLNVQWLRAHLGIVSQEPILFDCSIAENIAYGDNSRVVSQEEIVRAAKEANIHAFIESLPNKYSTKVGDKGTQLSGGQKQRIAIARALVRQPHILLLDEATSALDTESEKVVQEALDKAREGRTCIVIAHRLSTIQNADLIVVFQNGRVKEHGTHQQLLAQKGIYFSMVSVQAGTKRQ
The series is described as follows: Calcein-AM accumulation in LoVo-Dox cells (fluorescence microscopy). Format: cell-based. The settings on record: 50 μM verapamil, Calcein-AM loaded for 1 h. The procedure: as §1

Starred links: 1 amine or outer side, 2 acyl side, 3 side chain; linkers in the order of their positions; H or OH if unused. Positions of bridges follow the written chain, without caps; N, C: chain ends. Non-standard residues stand in square brackets, D forms with d. Residues, ends and D or L forms follow the SMILES beside them. *: point of attachment. X1 = CC[C@H](C)[C@@H](N[*:1])[C@@H](O)CC(=O)O[C@H](C(=O)[C@H](C)C(=O)[*:2])C(C)C; X3 = CC[C@H](C)[C@@H](N[*:1])[C@@H](O)CC(=O)[*:2]; X2 = CN(C)c1ccc2c(CC(=O)*)cc(=O)oc2c1; NMeY = CN[C@@H](Cc1ccc(O)cc1)C(=O)O; dNMeL = CN[C@H](CC(C)C)C(=O)O; Hiv = CC(C)[C@H](O)C(=O)O; Pyruvoyl = CC(=O)C(=O)*; Lac = C[C@H](O)C(=O)O

With `Nc1ccn([C@@H]2O[C@H](CO)[C@@H](O)C2(F)F)c(=O)n1` [2′,2′-difluorodeoxycytidine], the “crossresistance with APL” value in the series with human leukaemia samples is reported as “trend for crossresistance”. `Nc1ncn([C@@H]2O[C@H](CO)[C@@H](O)[C@H]2O)c(=O)n1` [5-azacytidine]: in the series with HeLa-APL cells (triplicate plates), the “crossresistance of HeLa-APL cells (IC50 values, SRB cell growth assay)” value is on record as “no significant crossresistance”. On the same count and under the same terms, then `Sc1ncnc2nc[nH]c12` [6-mercaptopurine], with “no significant crossresistance”; and `Nc1nc2nc[nH]c2c(=S)[nH]1` [6-thioguanine], with “no significant crossresistance”. Consider `CC[C@H](C)[C@H]1NC(=O)[C@@H](NC(=O)[C@@H](CC(C)C)N(C)C(=O)[C@@H]2CCCN2C(=O)C(C)=O)[C@@H](C)OC(=O)[C@H](Cc2ccc(OC)cc2)N(C)C(=O)[C@@H]2CCCN2C(=O)[C@H](CC(C)C)NC(=O)[C@@H](C)C(=O)[C@H](C(C)C)OC(=O)C[C@@H]1O` [APL, Aplidin™] (Pyruvoyl-P[dNMeL]T[X1]LP[NMeY](Me); ester 3-C), for which the “presence of the intact drug in cells” value in series [1] is “confirmed”. On to `CC[C@H](C)[C@H]1NC(=O)[C@@H](NC(=O)[C@@H](CC(C)C)N(C)C(=O)Cc2cc(=O)oc3cc(N(C)C)ccc23)[C@@H](C)OC(=O)[C@H](Cc2ccc(OC)cc2)N(C)C(=O)[C@@H]2CCCN2C(=O)[C@H](CC(C)C)NC(=O)[C@@H](C)C(=O)[C@H](C(C)C)OC(=O)C[C@@H]1O` [APL-dmac, aplidin-dimethylaminocoumarin] (X2-[dNMeL]T[X1]LP[NMeY](Me); ester 2-C), for which, in series [2] (450 nM APL-dmac, 1 h, 37°C, HeLa wt and HeLa-APL), the “internalisation and accumulation in the cytoplasmic compartment” value is given as “consistent in both cell systems”. The “internalisation after long-term treatment” value in series [2] (not shown) is recorded as “remained internalised”. Further, the “presence of the intact drug in cells” value in series [1] is “detected in both cell lines”. Turning to `COc1cc(NS(C)(=O)=O)ccc1Nc1c2ccccc2nc2ccccc12` [amsacrine], the “crossresistance of HeLa-APL cells” value in the series with HeLa-APL cells is reported as “no significant crossresistance”. In the case of `CC[C@@]1(O)C(=O)OCc2c1cc1n(c2=O)Cc2cc3ccccc3nc2-1` [camptothecin], the “crossresistance of HeLa-APL cells (IC50 values, SRB cell growth assay)” value with HeLa-APL cells (triplicate plates) is recorded as “no significant crossresistance”. Take `O=C(O)CCCc1ccc(N(CCCl)CCCl)cc1` [chlorambucil]: the “crossresistance of HeLa-APL cells” value in the series on HeLa-APL cells is “no significant crossresistance”. `N.N.[Cl][Pt][Cl]` [cisplatin]: in the series on HeLa-APL cells (triplicate plates), the “crossresistance of HeLa-APL cells (IC50 values, SRB cell growth assay)” value was “no significant crossresistance”.

Regarding `COc1cccc2c1C(=O)c1c(O)c3c(c(O)c1C2=O)C[C@@](O)(C(=O)CO)C[C@@H]3O[C@H]1C[C@H](N)[C@H](O)[C@H](C)O1` [doxorubicin], in the series with HeLa-APL cells (triplicate plates), the “crossresistance of HeLa-APL cells (IC50 values, SRB cell growth assay)” value is “no significant crossresistance”. As for `COc1cc([C@@H]2c3cc4c(cc3[C@@H](O[C@@H]3O[C@@H]5CO[C@@H](C)O[C@H]5[C@H](O)[C@H]3O)[C@H]3COC(=O)[C@H]23)OCO4)cc(OC)c1O` [etoposide], the “crossresistance of HeLa-APL cells (IC50 values, SRB cell growth assay)” value in the series with HeLa-APL cells (triplicate plates) is “no significant crossresistance”. Turning to `Nc1nc(F)nc2c1ncn2[C@@H]1O[C@H](CO)[C@@H](O)[C@@H]1O` [fludarabine], the “crossresistance of HeLa-APL cells (IC50 values, SRB cell growth assay)” value in the series on HeLa-APL cells (triplicate plates) is listed as “no significant crossresistance”. As for `N[C@@H](Cc1ccc(N(CCCl)CCCl)cc1)C(=O)O` [melphalan], the “crossresistance of HeLa-APL cells” value in the series on HeLa-APL cells is recorded as “no significant crossresistance”. Still for that read-out and setting: with `O=C1c2c(O)ccc(O)c2C(=O)c2c(NCCNCCO)ccc(NCCNCCO)c21` [mitoxantrone] the entry was “no significant crossresistance”. On to `CC(=O)O[C@H]1C(=O)[C@@]2(C)[C@H]([C@H](OC(=O)c3ccccc3)[C@]3(O)C[C@H](OC(=O)[C@H](O)[C@@H](NC(=O)c4ccccc4)c4ccccc4)C(C)=C1C3(C)C)[C@]1(OC(C)=O)CO[C@@H]1C[C@@H]2O` [paclitaxel], for which the “crossresistance of HeLa-APL cells (IC50 values, SRB cell growth assay)” value in the series with HeLa-APL cells (triplicate plates) is “no significant crossresistance”. With `CC[C@H](C)[C@H]1NC(=O)[C@@H](NC(=O)[C@@H](CC(C)C)N(C)C(=O)[C@@H]2CCCN2C(=O)[C@H](C)O)[C@@H](C)OC(=O)[C@H](Cc2ccc(OC)cc2)N(C)C(=O)[C@@H]2CCCN2C(=O)[C@H](CC(C)C)NC(=O)[C@H](C(C)C)OC(=O)C[C@@H]1O` [tamandarin A] (H-[Lac]P[dNMeL]T[X3][Hiv]LP[NMeY](Me); ester 4-C), the “cytotoxic activity relative to APL” value in series [3] was “comparable to that of APL”. For the compound `COc1ccc(CCN(C)CCCC(C#N)(c2ccc(OC)c(OC)c2)C(C)C)cc1OC` (centres unmarked) [verapamil], the “effect of pre-incubation on calcein-AM accumulation” value at Pgp170 in LoVo-Dox cells was “accumulation of calcein-AM in LoVo-Dox-resistant cells to an extent similar to that observed in sensitive LoVo cells”.

For the compound `CC[C@]1(O)C[C@@H]2CN(CCc3c([nH]c4ccccc34)[C@@](C(=O)OC)(c3cc4c(cc3OC)N(C)[C@H]3[C@@](O)(C(=O)OC)[C@H](OC(C)=O)[C@]5(CC)C=CCN6CC[C@]43[C@@H]65)C2)C1` [vinblastine], the “crossresistance of HeLa-APL cells (IC50 values, SRB cell growth assay)” value with HeLa-APL cells (triplicate plates) was “no significant crossresistance”. In the case of didemnin B, in the series with HeLa-APL cells (48 h exposure, SRB assay, triplicate plates), the “crossresistance of HeLa-APL cells to APL structural analogues” value is recorded as “comparable crossresistance”. In series [3], the “cytotoxic activity relative to APL” value is “comparable to that of APL”.
